For series [1], the target named is T1, P23H opsin (Bos taurus, UniProt P02699, P23H).
T1 construct: expressed in transfected cells
Format: cell-based, bovine. As to the method: (§1) The P23H opsin producing cells were grown in 6-well plates and induced to produce P23H opsin. The DMSO solutions of the NCI compounds were individually added to separate wells at a final concentration of 100 μM. After incubation for 48 h cells were collected and washed with PBS. The cells were then lysed in PBSD by constantly rotating for 1 h at 4° C. The tubes were spun at 36000 rpm for […] and supernatant collected in fresh tubes. Total protein was quantified using a commercially available assay system, the DC protein assay (Biorad). Equal amounts of protein (10 μg) from different samples was loaded on 4-20% SDS polyacrylamide gels and total opsin quantified by western blotting.
as §1, with “the test” for “the NCI”, “1 hour” for “1 h”, “at 36,000” for “at 36000”, “using” for “using a commercially available assay system, the”, “blotting. Proteins were separated on SDS-PAGE gels and western blotted as described in Noorwez et at (2004).” for “blotting.”
Thus, a higher fraction of P23H molecules attain a stable conformation. […] This might also explain the difference in the degree of rescue obtained with these two pharmacological chaperones.

The target of series [2] is T1, P23H opsin. Nature of the series: Yield of folded P23H rhodopsin purified from P23H opsin expressing HEK293 cells, by spectrophotometry. As to conditions: for increase in P23H pigment over control: compound present during P23H opsin expression, 48 hours, β-ionone 10 μM; for increase in the yield of folded P23H rhodopsin: P23H opsin expressing cells treated with compound, versus no compound; for % Increase in P23H Yield (Table 1): compound concentration 100 μM, compared to control; for yield of folded P23H rhodopsin, in words: versus absence of the compound. Format: cell-based, bovine. Here is the method: Wild-type (WT) and P23H expressing stable cell lines were generated in a commercially available cloning system, the Flp-In T-Rex System™ (Invitrogen). The stable cells were grown in DMEM high glucose media supplemented with 10% (vlv) fetal bovine serum, antibiotic antimycotic solution, […] blasticidin and hygromycin at 37° C. in presence of 5% CO2. For all the experiments the cells were allowed to reach confluence and were induced with 1 μg/ml tetracycline after change of media and then compounds were added. The plates were incubated for 48 h after which the cells were harvested.
For purification of rhodopsin 100 μM […] was added to a confluent plate of P23H cells after induction. […] Rhodopsin purification was essentially as described below for opsin purification with minor modifications. Briefly, the cells were harvested and washed with PBS followed by incubation with 50 μM 11-cis-retinal for 1.5 h at 4° C. The cells were then washed three times with PBS to remove excess retinal. Lysis, column binding and elution from the column were same as in case of opsin purification.
Stable cell lines expressing the P23H opsin were generated using Flp-In T-Rex system (Invitrogen) in HEK293 cell line. To create plasmids for constructing stable cell lines, an EcoRI-NotI fragment from the wild-type or P23H mutant synthetoc bovine opsin gene in pMT4 (see Kaushal et al., Biochemistry, Vol. 33, pp. 6121-6128 (1994) was combined with the large EcoRI-NotI fragment of pcDNA5/FRT/TO (Invitrogen). The resulting plasmids contain opsin under the control of a tetracycline-inducible human cytomegalovirus promoter and a flippase recognition sequence (FRT) for site sepecific recombination at the unique chromosomal FRT site of HEK293 Flp-In T-Rex. The opsin sequence in these plasmids was verified by PCR cycle sequencing. To construct stable cell lines, HEK293 Flp-In T-Rex cells were co-transfected with the flippase vector pOG44 (from Invitrogen) and the pcDNA5/FRT/TO vector or its derivatives containing the opsin gene. Stable recombinants were obtained by selecting for cells expressing resistance to hygromycin due to plasmid recombination at the FRT site. After the initial selection, the stable cell lines were routinely grown in the same media as HEK293 Flp-In T-rex, except that […].
The stable cells were grown in DMEM high glucose media supplemented with 10% (v/v) fetal bovine serum, antibiotic/antimycotic solution, 5 μg/ml blasticidin and hygromycin at 37° C. in presence of 5% CO2. For all the experiments the cells were allowed to reach confluence and were induced with 1 μg/mi tetracycline after change of media and then compounds were added. The plates were incubated for 48 h after which the cells were harvested.
The effect of the compounds on P23H rhodopsin yield was assessed by purifying and spectrophotormetrically determining the yield. After 48 hours of induction and treatment with compounds the cells were harvested and rhodopsin purified essentially as described in Noorwez et al. (2004). For purification of rhodopsin 100 μM NCI-45012 was added to a confluent plate of P23H cells after induction. […] Rhodopsin purification was essentially as described earlier for opsin purification with minor modifications. Briefly, the cells were harvested and washed with PBS followed by incubation with 50 μM 11-cis-retinal for 1.5 hours at 4° C., The cells were then washed three times with PBS to remove excess retinal. Lysis, column binding and elution from the column were the same as for opsin purification.
Compounds identified by computational modeling (see Example 1) were screened as described above. The effect of compounds on the yield of mutant rhodopsin was determined by spectrophotometry. […]

Series [3] deals with T2, WT opsin (Bos taurus, UniProt P02699). Format: biochemical, bovine. Conditions: compound without 11-cis-retinal chromophore, in vitro. Here is the method: The cells were washed after 48 h and rhodopsin purified without treating the cells with 11-cis-retinal under conditions that yield only folded rhodopsin (Noorwez et al. (2004)).
In series [4] the target is T2, WT opsin. As to the kind of experiment: Opsin regeneration and retinal competition: rate of 500 nm pigment formation of purified WT opsin with 11-cis-retinal. The series is classed as biochemical, bovine. Here is the method:
WT opsin producing cells were grown in 10 cm culture plates and induced for opsin production. After 48 hour of induction the cells were harvested and washed with PBS (10 mM sodium phosphate, 130 mM NaCl, pH 7.2). The cells were lysed in PBSD (PBS containing 1.0% DM and 1× protease inhibitor cocktail) for 1 hour and the lysate was added to 1D4 coupled sepharose beads and incubated for 1 hour at 4° C. The beads were washed 5 times in PBSD and twice with 10 mM sodium phosphate buffer containing 0.5% DM, pH 6.0. The bound WT opsin was eluted with a competing peptide representing the last 18 amino acids of rhodopsin in the latter buffer for 1 hour.
All the opsin regeneration and competition assays were performed under dim red light in a Cary 50 spectrophotometer (Varian) equipped with temperature control. 25 μM purified WT opsin was mixed with 50 μM 11-cis retinal and scanned every two minutes in the range of 250-650 nm until no more rhodopsin was regenerated. Similarly opsin was mixed with compound SN10011 (2 or 5 mM) and allowed to sit for 10 minutes on ice. […] The reactions were conducted in 100 μl total volume where the compounds were provided in 2 μl solution to 98 μl opsin solution. The temperature was maintained at 20° C.

A further series has as its system P347S (Class I) mice. Conditions: cited from earlier work.
The next series deals with T17M (Class II) mice. As to conditions: cited from earlier work.
Series [5] concerns the target T1, P23H opsin. As to the kind of experiment: Yield of folded P23H rhodopsin purified from P23H opsin expressing HEK293 cells, by spectrophotometry. The series is classed as cell-based, bovine. As to conditions: 48 h, no 11-cis-retinal.
Where [6] appears, read: in the presence of 11-cis-retinal.

“Also recorded” adds a separate entry of the source. Where two headings read alike, the source gives them in different places.

For `CC1=C(/C=C/C(C)=C/C=C/C(C)=C/C=O)C(C)(C)CCC1` [11-cis-retinal, reference compound], on P23H opsin [1] (setting [6]), the “increase in yield of total opsin” value was 2.4 fold and the “yield of folded rhodopsin” value is given as 2.6 fold. On P23H opsin [2], the “effectiveness of 11-cis-retinal relative to β-ionone in increasing cellular yields of P23H rhodopsin” value was “about 2 fold” and the “increase in P23H pigment over control” value was 5 fold.

With `CC(=O)c1c(C)n[nH]c1C` [Compound 1, 1-(3,5-dimethyl-1H-pyrazol-4-yl)ethanone], at P23H opsin [2], the “% Increase in P23H Yield (Table 2)” value is 30 ± 5%; the “increase in the yield of folded P23H rhodopsin” value was found to be 30%; the “% Increase in P23H Yield (Table 1)” value is 31%; the “yield of folded P23H rhodopsin, in words” value is on record as “increased yield of folded rhodopsin”. Further, at WT opsin [3] (listed as SN10011), the “formation of a 500 nm absorbing pigment with purified WT opsin” value is on record as “No pigment was formed; also recorded: No 500 nm absorbing pigment was generated”. Moreover, on WT opsin [4] (listed as SN10011), the “inhibition of opsin regeneration (pigment formation with 11-cis-retinal), in words” value (“inhibition of opsin regeneration” below) was “significant effect on inhibition of pigment formation; also recorded: inhibited”.

With `N#Cc1cn(Cc2ccco2)c(=O)[nH]c1=O` [Compound 2, 1-furan-2-ylmethyl-2,4-dioxo-1,2,3,4-tetrahydro-pyrimidine-5-carbonitrile], at P23H opsin [2], the “% Increase in P23H Yield (Table 2)” value is on record as 40 ± 7% and the “% Increase in P23H Yield (Table 1)” value was 43%.

In the case of `O=[PH](O)c1ccccc1` [Compound 3, phenyl-phosphinic acid], at P23H opsin [2], the “% Increase in P23H Yield (Table 2)” value was 40 ± 3% and the “% Increase in P23H Yield (Table 1)” value is given as 32%.

`Cc1cc([N+](=O)[O-])ccn1` [Compound 4, 2-methyl-4-nitro-pyridine]: on P23H opsin [2], the “% Increase in P23H Yield (Table 2)” value is reported as 25 ± 8% and the “% Increase in P23H Yield (Table 1)” value is 24%.

As for `O=C1NC(CCO)C(=O)NC1CCO` (centres unmarked) [Compound 5, 3,6-bis-(2-hydroxyethy)-piperazine-2,5-dione], on P23H opsin [2], the “% Increase in P23H Yield (Table 2)” value amounted to 30 ± 10% and the “% Increase in P23H Yield (Table 1)” value is recorded as 15%.

Regarding `CC(C)N(CC#N)C(C)C` [Compound 6, diisopropylaminoacetonitrile], at P23H opsin [2], the “% Increase in P23H Yield (Table 2)” value came to 25 ± 3% and the “% Increase in P23H Yield (Table 1)” value came to 28%.

Regarding `N#Cc1ccc2c(c1)OCO2` [NSC 27009, 3,4-Methylenedioxybenzonitrile], the “% Increase in P23H Yield (Table 2)” value on P23H opsin [2] was 20 ± 5%.

Regarding `Cn1cc(C(N)=O)ccc1=N` [NSC 66688, 6-imino-1-methyl-1,6-dihydro-3-pyridinecarboxamine], at P23H opsin [2], the “% Increase in P23H Yield (Table 2)” value came out at 40 ± 9%.

On to `Nn1nnc2ccccc21` [NSC 114498, 1H-1,2,3-benzotriazol-1-amine], for which, on P23H opsin [2], the “% Increase in P23H Yield (Table 2)” value was 30 ± 6%.

In the case of `Oc1ccccc1C=Nn1cnnc1` [NSC 121968, 4-Salicylideneamino-1,2,4-triazol], the “% Increase in P23H Yield (Table 2)” value at P23H opsin [2] is given as 29 ± 5%.

For `C[C@@H]1CCC[C@H](C)C1` [cis-1,3-dimethylcyclohexane], on P23H opsin [2], the “increase in the yield of folded P23H rhodopsin” value came to 15% and the “yield of folded P23H rhodopsin, in words” value is recorded as “increased yield of folded P23H rhodopsin”. Besides, the “inhibition of opsin regeneration” value on WT opsin [4] was “much weaker inhibitor of opsin regeneration”.

`CCCCCCCCCCCCCCCC(=O)OC/C=C(C)/C=C/C=C(C)/C=C/C1=C(C)CCCC1(C)C` [vitamin A palmitate]: the “changes in retinal degeneration on treatment” value with P347S (Class I) mice is reported as “no significant changes”. In the series on T17M (Class II) mice, the “decrease in outer nuclear layer (ONL) thickness in treated animals” value is 24%; the “decrease in the rate of decline in electroretinogram (ERG) a- and b-wave amplitudes” value was 40-45%.

Take `CC(=O)/C=C/C1=C(C)CCCC1(C)C` [β-ionone]: at P23H opsin [1] (P23H cells, β-ionone), the “increase in yield of total opsin relative to no compound” value is on record as 30%. Further, the “increase in P23H pigment over control” value at P23H opsin [2] is recorded as 2.5 fold. The “formation of a 500 nm absorbing pigment with purified WT opsin” value on WT opsin [3] is listed as “does not form a light absorbing pigment; also recorded: did not form a 500 nm absorbing pigment; also recorded: no 500 nm absorbing pigment was formed”. The “pigment from P23H HEK cells treated with compound, purified without 11-cis-retinal treatment” value on P23H opsin [5] is recorded as “No pigment was detected; also recorded: No pigment was observed; also recorded: No pigment was generated”. Further, the “inhibition of opsin regeneration” value on WT opsin [4] was “inhibited opsin regeneration in a dose dependent manner”.
